In the first assay the target is T1, Human Polymorphonuclear Leukocyte Elastase (Homo sapiens, UniProt P08246).
T1 construct: Crude extract of human polymorphonuclear leukocytes (PMN) containing elastase activity; endogenous in cells; host or cells: human polymorphonuclear leukocytes (crude extract)
T1 sequence (P08246 30-247 limits assumed): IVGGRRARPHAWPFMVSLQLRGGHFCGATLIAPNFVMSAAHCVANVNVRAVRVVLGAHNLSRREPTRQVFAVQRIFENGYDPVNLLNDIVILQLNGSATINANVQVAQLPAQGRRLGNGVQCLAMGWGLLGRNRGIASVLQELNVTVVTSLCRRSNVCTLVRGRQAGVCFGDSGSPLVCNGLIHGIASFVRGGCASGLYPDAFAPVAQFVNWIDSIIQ
Put plainly: Inhibition of human polymorphonuclear leukocyte (granulocyte) elastase via hydrolysis of Boc-AAPAN. The assay is classed as biochemical.
Details: not given
The protocol: Enzyme assay for the Inhibition of Human Polymorphonuclear Leukocyte Elastase Via Hydrolysis of N-t-Boc-alanyl-alanyl-prolylalanine-p-nitroanilide
0.05M TES (N-tris[hydroxymethyl]methyl-2-amino-ethanesulfonic acid) buffer, pH 7.5.
0.2 mM N-t-Boc-alanyl-alanyl-prolyl-alanine-p-nitroanilide (Boc-AAPAN).
To prepare substrate, the solid (m.w. 550) was first dissolved in 10.0 ml DMSO. Buffer at pH 7.5 was then added to a final volume of 100 ml.
Crude extract of human polymorphonuclear leukocytes (PMN) containing elastase activity.
Inhibitors (cephalosporin sulfoxide esters) to be tested dissolved in DMSO just before use.
To 1.0 ml of 0.2 mM Boc-AAPAN in a cuvette, 0.01-0.1 ml of DMSO with or without inhibitor was added. After mixing, a measurement was taken at 410 mμ to detect any spontaneous hydrolysis due to of test compound. 0.05 Milliliters of PMN extract was then added and the αOD/minute at 410 mμ was measured and recorded. Beckman model 35 spectrophotometer was used.
The elastase activity in the crude PMN extract may vary from one preparation to another. A control of each new batch is run, and the volume added in the assay procedure is adjusted according to activity.
Take `CC(=O)O[C@H]1C(=O)N2[C@@H](C(=O)OCc3ccccc3)C(C)(C)S(=O)(=O)[C@H]12` [CH3 COO / 2 / OBZ, Benzyl 6α-acetoxypenicillanate-1,1-dioxide]: the concentration for half-maximal inhibition (IC50) is 0.524 µM. Still for that read-out and setting: to `CC(OC(=O)NCc1ccccc1)[C@H]1C(=O)N2[C@@H](C(=O)OCc3ccccc3)C(C)(C)S(=O)(=O)[C@H]12` (stereo partly shown) [drawing 28 / 2 / OBZ] belongs 1.2 µM.

Still in this assay, the particulars now being: crude human PMN extract, 0.2 mM Boc-AAPAN, pH 7.5, 410 mμ, 2 minutes after zero time; read-out: IC50 (dosage for 50% inhibition of the enzyme activity) (converted).
As for `COc1ccc(CNC(=O)[C@@H]2N3C(=O)[C@@H](NC(=O)C(F)(F)F)[C@H]3S(=O)(=O)C2(C)C)cc1` [6β-CF3 (CO)NH / 2 / NHBZ(p-OCH3)], the IC50 is 0.647 µM. Still for that read-out and setting: the result for `CN(C(=O)C(F)(F)F)[C@H]1C(=O)N2[C@@H]1SC(C)(C)[C@@H]2C(=O)OCc1ccccc1` [6α-CF3 CON(CH3) / 0 / OBZ, benzyl 6α-(N-methyltrifluoroacetamido)penicillinate] reads 7.2 µM; that for `CC(O)[C@H]1C(=O)N2[C@@H]1SC(C)(C)[C@@H]2C(=O)OCc1ccccc1` (stereo partly drawn) [6α-CH3 CH(OH) / 0 / OBZ], 59.6 µM; that for `CC(OC(=O)N(Cc1ccccc1)C(=O)NCc1ccccc1)[C@H]1C(=O)N2[C@@H](C(=O)OCc3ccccc3)C(C)(C)S(=O)(=O)[C@H]12` (stereo partly shown) [drawing 30 / 2 / OBZ], 0.0789 µM. For the molecule `CC1(C)[C@H](C(=O)OCc2ccc(C(=O)O)cc2)N2C(=O)[C@H](NC(=O)C(F)(F)F)[C@H]2[S+]1[O-]` (stereo partly drawn) [6α-CF3 (CO)NH / 1 / OBZ(p-COOH)], the concentration for half-maximal inhibition (IC50) was 1.08 µM. In the case of `CC(OC(=O)OCc1ccc([N+](=O)[O-])cc1)[C@H]1C(=O)N2[C@@H](C(=O)OCc3ccccc3)C(C)(C)S(=O)(=O)[C@H]12` (stereo partly shown) [drawing 27 / 2 / OBZ], the IC50 was 0.366 µM. For the molecule `Cc1ccc(S(=O)(=O)C[C@H]2C(=O)N3[C@@H](C(=O)OCc4ccccc4)C(C)(C)S(=O)(=O)[C@H]23)cc1` [6α-(TS)CH2 / 2 / OBZ (2nd)], the IC50 was 4.07 µM. The same measure, in the same setting: to `CC1(C)S[C@@H]2[C@H](NC(=O)C(F)(F)F)C(=O)N2[C@H]1C(=O)OCc1ccccc1` [6β-CF3 CONH / 0 / OBZ, benzyl 6β-trifluoroacetamidopenicillanate] belongs 29.8 µM.

In the case of `CN(Cc1ccc(C(=O)O)cc1)C(=O)[C@@H]1N2C(=O)[C@H](NC(=O)C(F)(F)F)[C@H]2S(=O)(=O)C1(C)C` [6α-CF3 (CO)NH / 2 / N(CH3)BZ(p-COOH)], the concentration for half-maximal inhibition (IC50) is 1.42 µM. As for `CC(C)(C)OC(=O)c1ccc(COC(=O)[C@@H]2N3C(=O)[C@@H](NC(=O)C(F)(F)F)[C@H]3S(=O)(=O)C2(C)C)cc1` [6β-CF3 (CO)NH / 2 / OBZ(p-COOtBu)], the IC50 is 0.935 µM.

`CC1(C)S[C@@H]2C(OC(=O)COc3ccccc3)C(=O)N2[C@H]1C(=O)OCc1ccccc1` (stereo partly shown) [C6 H5 OCH2 COO / 0 / OBZ]: the IC50 is 45.3 µM. As for `Cc1ccc(S(=O)(=O)N[C@H]2C(=O)N3[C@@H]2SC(C)(C)[C@@H]3C(=O)OCc2ccccc2)cc1` [6α-(TS)NH / 0 / OBZ], the IC50 is 0.217 µM.

`CO[C@H]1C(=O)N2[C@@H](C(=O)Cc3ccccc3)C(C)(C)S(=O)(=O)[C@H]12` [6α-OCH3 / 2 / BZ]: the half-maximal inhibitory concentration (IC50) is 5.93 µM. Turning to `COC(=O)[C@@H]1N2C(=O)[C@H](OC)[C@H]2S(=O)(=O)C1(C)C` [6α-OCH3 / 2 / OCH3], the IC50 was 72.1 µM. Same read-out and setting: to `CC1(C)[C@H](C(=O)OCC(F)(F)F)N2C(=O)[C@H](NC(=O)C(F)(F)F)[C@H]2S1(=O)=O` [6α-CF3 CONH / 2 / OCH2 CF3] belongs 0.235 µM; to `CO[C@]1(NC(=O)C(F)(F)F)C(=O)N2[C@@H](C(=O)OCc3ccccc3)C(C)(C)S(=O)(=O)[C@@H]21` [α-CF3 CONH / β-CH3 O / 2 / OBZ], 1.72 µM. In the case of `CO[C@H]1C(=O)N2[C@@H](C(=O)OCc3ccccc3)C(C)(COC(C)=O)S(=O)(=O)[C@H]12` (stereo partly drawn) [α-CH3 O / 2 / OBZ], the IC50 was 9.72 to 14.6 µM.

These data come from patent US4847247A, “Penicillin derivatives as anti-inflammatory and antidegenerative agents” (Merck & Co., Inc., priority 1986, dated 1989).
